According to patent publication US11109593B2, “Isoxazolin-5-one derivative and herbicide containing same as active ingredient” (HOKKO CHEMICAL INDUSTRY CO., LTD., priority 2017, dated 2021):

Experiments:
Assay type in all cases: in vivo
[1] = system: broad leaf weeds (Lindernia pyxidaria and Monochoria vaginalis); test: Test Example 2: herbicidal effect test by treatment during growing period in paddy rice cultivation (seven days after seeding); conditions: 120 g/10a active ingredient, assessed 14 days after treatment, dry weight vs untreated area
Method in brief: (§1)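 Herbicidal rate (%) = {1 − treated/untreated mean plant dry weight} × 100, assessed in duplicate 14 days post-treatment. Emulsion formulations were diluted in water and dropped onto flooded (about 3 cm) paddy pots 7 days after seeding, giving 120 g a.i. per 10 ares. Plants were grown in a glass greenhouse.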

[2] = system: Echinochloa crus-galli; test: as above; conditions: 120 g/10a active ingredient, assessed 14 days after treatment, dry weight vs untreated area
Method in brief: as §1

[3] = system: Scirpus juncoides; test: as above; conditions: 120 g/10a active ingredient, assessed 14 days after treatment, dry weight vs untreated area
Method in brief: as §1

[4] = system: broad leaf weeds (Lindernia pyxidaria and Monochoria vaginalis); test: Test Example 1: herbicidal effect test by treatment of rice paddy soil (immediately after seeding); conditions: 120 g/10a active ingredient, dry weight vs untreated area, 14 days after treatment
Method in brief: (§2)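 Applied at 120 g a.i./10 ares as diluted emulsion dropped into flooded (~3 cm) paddy soil pots right after sowing seeds 0–1 cm deep; greenhouse, two replicates. At day 14, dry weight of treated versus untreated plants gives % herbicidal rate.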

[5] = system: Echinochloa crus-galli; test: as above; conditions: 120 g/10a active ingredient, dry weight vs untreated area, 14 days after treatment
Method in brief: as §2

[6] = system: Scirpus juncoides; test: as above; conditions: 120 g/10a active ingredient, dry weight vs untreated area, 14 days after treatment
Method in brief: as §2

[7] = system: Amaranthus viridis; test: Test Example 4: herbicidal effect test by treatment of leave and stem in dry field farming (seven days after seeding); conditions: 120 g/10a active ingredient; emulsion sprayed seven days after seeding; evaluated 14 days after treatment
Method in brief: (§3)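 Twenty seeds per species were mixed into the top 1 cm of alluvial soil in 36 cm^2 pots; emulsions were sprayed seven days after seeding at 100 L per 10 ares (120 g active ingredient per 10 ares). Herbicidal rate (%) = {1 − treated/untreated mean dry weight} × 100, 14 days after treatment, duplicate.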

[8] = system: southern crabgrass; test: as above; conditions: 120 g/10a active ingredient; emulsion sprayed seven days after seeding; evaluated 14 days after treatment
Method in brief: as §3

[9] = system: Echinochloa crus-galli; test: as above; conditions: 120 g/10a active ingredient; emulsion sprayed seven days after seeding; evaluated 14 days after treatment
Method in brief: as §3

[10] = system: Chenopodium album; test: as above; conditions: 120 g/10a active ingredient; emulsion sprayed seven days after seeding; evaluated 14 days after treatment
Method in brief: as §3

[11] = system: Amaranthus viridis; test: Test Example 3: herbicidal effect test by treatment of dry field farming soil (one day after seeding); conditions: 120 g/10a active ingredient, evaluated 14 days after treatment
Method in brief: (§4)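 Herbicidal rate (%) equals 1 minus treated/untreated mean plant dry weight, times 100, taken 14 days after treatment in duplicate pots. Emulsion diluted in water was applied at 100 L per 10 ares (120 g a.i. per 10 ares) one day after sowing 20 seeds per species into the top 1 cm of alluvial soil.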

[12] = system: southern crabgrass; test: as above; conditions: 120 g/10a active ingredient, evaluated 14 days after treatment
Method in brief: as §4

[13] = system: Echinochloa crus-galli; test: as above; conditions: 120 g/10a active ingredient, evaluated 14 days after treatment
Method in brief: as §4

[14] = system: Chenopodium album; test: as above; conditions: 120 g/10a active ingredient, evaluated 14 days after treatment
Method in brief: as §4

Structure (SMILES) | Herbicidal rate (%) Lindernia pyxidaria [1] [%] | Herbicidal rate (%) Monochoria vaginalis [1] [%] | Herbicidal rate (%) Echinochloa crus-galli [2] [%] | Herbicidal rate (%) Scirpus juncoides [3] [%] | Herbicidal rate (%) Lindernia pyxidaria [4] [%] | Herbicidal rate (%) Monochoria vaginalis [4] [%] | Herbicidal rate (%) Echinochloa crus-galli [5] [%] | Herbicidal rate (%) Scirpus juncoides [6] [%] | herbicidal effect (herbicidal rate), Amaranthus viridis [7] [%] | herbicidal effect (herbicidal rate), southern crabgrass [8] [%] | herbicidal effect (herbicidal rate), Echinochloa crus-galli [9] [%] | herbicidal effect (herbicidal rate), Chenopodium album [10] [%] | herbicidal rate, Amaranthus viridis [11] [%] | herbicidal rate, southern crabgrass [12] [%] | herbicidal rate, Echinochloa crus-galli [13] [%] | herbicidal rate, Chenopodium album [14] [%]
CCC(CC)n1oc(=O)c(Cc2ccccc2N(C(=O)C2CC2)S(=O)(=O)C(F)(F)F)c1C [Compound 1-405] | 90 | 90 | 90 | 90 | 90 | 90 | 90 | 90 | 40 | 90 | 90 | 40 | 90 | 90 | 90 | 90
Cc1c(Cc2ccccc2N(C(=O)C2CC2)S(=O)(=O)C(F)(F)F)c(=O)on1CC(C)(C)C [Compound 1-407] | 90 | 90 | 90 | 90 | 90 | 90 | 90 | 90 | 40 | 90 | 90 | 40 | 90 | 90 | 90 | 90
CCCC(C)n1oc(=O)c(Cc2ccccc2N(C(=O)C2CC2)S(=O)(=O)C(F)(F)F)c1C (centres unmarked) [Compound 1-408] | 70 | 60 | 90 | 90 | 80 | 80 | 100 | 90 | 40 | 90 | 90 | 70 | 80 | 100 | 100 | 60
COCC(C)n1oc(=O)c(Cc2ccccc2N(C(=O)C2CC2)S(=O)(=O)C(F)(F)F)c1C (centres unmarked) [Compound 1-412] | 90 | 90 | 90 | 90 | 90 | 90 | 90 | 90 | 40 | 90 | 90 | 40 | 90 | 90 | 90 | 90
CSCCn1oc(=O)c(Cc2ccccc2N(C(=O)C2CC2)S(=O)(=O)C(F)(F)F)c1C [Compound 1-413] | 90 | 90 | 90 | 90 | 90 | 90 | 90 | 90 | 40 | 90 | 90 | 40 | 90 | 90 | 90 | 90
Cc1c(Cc2ccccc2N(C(=O)C2CC2)S(=O)(=O)C(F)(F)F)c(=O)on1C(C)c1ccccc1 (centres unmarked) [Compound 1-416] | 90 | 90 | 90 | 90 | 90 | 90 | 90 | 90 | 40 | 90 | 90 | 40 | 90 | 90 | 90 | 90
Cc1c(Cc2ccccc2N(C(=O)C2CCCCC2)S(=O)(=O)C(F)(F)F)c(=O)on1C(C)(C)C [Compound 1-431] | 90 | 90 | 90 | 90 | 90 | 90 | 90 | 90 | 40 | 90 | 90 | 40 | 90 | 90 | 90 | 90
CCC(C)n1oc(=O)c(Cc2ccccc2N(C(=O)C2CCCCC2)S(=O)(=O)C(F)(F)F)c1C (centres unmarked) [Compound 1-432] | 90 | 90 | 90 | 90 | 90 | 90 | 90 | 90 | 40 | 90 | 90 | 40 | 90 | 90 | 90 | 90
